Here are results for ten compounds from patent EP0622356A1, “Indoloylguanidine derivatives as inhibitors of sodium-hydrogen exchange” (SUMITOMO PHARMACEUTICALS COMPANY, LIMITED, priority 1993, dated 1994).

The target in test [1] is T1, Na⁺/H⁺ exchanger (Rattus norvegicus, UniProt P26431).
T1 construct: using the vascular smooth muscle cells isolated from the rat thoracic aorta; endogenous in cells; host or cells: primary vascular smooth muscle cells isolated from rat thoracic aorta
The test can be described thus: Inhibition of Na⁺/H⁺ exchanger activity in vitro (change in cell viability during acid loading). The conditions noted are these: minimum effective concentration, vascular smooth muscle cells isolated from the rat thoracic aorta. Format: cell-based. The method, then: The experiment was performed by modifying the method of Mungre et al. described in Exp. Cell Res., 193, 236 (1991). That is, inhibition of the Na⁺/H⁺ exchanger activity was evaluated by the change in cell viability during acid loading, using the vascular smooth muscle cells isolated from the rat thoracic aorta.
The compounds of the present invention shown in Examples were evaluated by the minimum effective concentration (MEC) for the inhibition of the Na⁺/H⁺ exchanger activity.

Test [2] concerns the target T1, Na⁺/H⁺ exchanger. The test can be described thus: Inhibition of Na⁺/H⁺ exchanger activity in vitro (change in intracellular pH during acid loading). Format: cell-based. The protocol: That is, inhibition of the Na⁺/H⁺ exchanger activity was evaluated by the change in intracellular pH during acid loading, using the vascular smooth muscle cells isolated from the rat thoracic aorta.

The test system of test [3] is arrhythmia induced by reperfusion after rat coronary artery occlusion. Description: Inhibition of ischemia- and reperfusion-induced arrhythmia in vivo.
Method: The experiment was performed by modifying the method of Crome et al. described in J. Cardiovasc. […] That is, the prevention of arrhythmia induced by reperfusion after rat coronary artery occlusion was evaluated by the incidence of ventricular tachycardia and ventricular fibrillation as well as the mortality.
Where [4] appears, read: vascular smooth muscle cells isolated from the rat thoracic aorta, change in intracellular pH during acid loading, read-out: IC₅₀.

The structures appear in SMILES notation. Counter-ions that a name gives are not always drawn. Like-named read-outs stand apart in the source and are kept apart here.

T1 sequence (P26431 whole entry): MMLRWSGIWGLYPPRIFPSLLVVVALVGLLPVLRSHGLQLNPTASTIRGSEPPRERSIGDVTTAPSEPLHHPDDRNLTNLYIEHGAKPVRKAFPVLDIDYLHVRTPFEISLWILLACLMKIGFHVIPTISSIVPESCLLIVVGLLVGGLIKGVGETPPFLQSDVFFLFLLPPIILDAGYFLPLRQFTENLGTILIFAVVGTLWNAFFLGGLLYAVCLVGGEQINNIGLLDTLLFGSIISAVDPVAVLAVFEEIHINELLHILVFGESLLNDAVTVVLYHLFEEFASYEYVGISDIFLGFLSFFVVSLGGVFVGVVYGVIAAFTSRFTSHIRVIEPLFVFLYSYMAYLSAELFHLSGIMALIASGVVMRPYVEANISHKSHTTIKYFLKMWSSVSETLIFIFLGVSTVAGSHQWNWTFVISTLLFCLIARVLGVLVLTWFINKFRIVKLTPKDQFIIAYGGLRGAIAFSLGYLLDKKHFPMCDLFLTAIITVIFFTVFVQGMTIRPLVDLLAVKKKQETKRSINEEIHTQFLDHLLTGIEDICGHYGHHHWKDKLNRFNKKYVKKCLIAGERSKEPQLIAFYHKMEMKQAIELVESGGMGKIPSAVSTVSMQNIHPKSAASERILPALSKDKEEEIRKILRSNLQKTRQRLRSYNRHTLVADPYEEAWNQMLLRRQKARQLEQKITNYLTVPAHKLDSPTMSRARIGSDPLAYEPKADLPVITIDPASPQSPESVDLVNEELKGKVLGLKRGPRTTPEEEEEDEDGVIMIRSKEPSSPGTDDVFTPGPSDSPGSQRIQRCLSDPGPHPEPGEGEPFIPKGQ

Regarding `NC(N)=NC(=O)c1nc(Cl)c(N2CCCCCC2)nc1N` [5-Hexamethylene amiloride, reference compound], on Na⁺/H⁺ exchanger [1], the “Inhibition of Na^+/H^+ Exchanger MEC” value is 0.3 µM. Further, at Na⁺/H⁺ exchanger [2] (setting [4]), the IC50 was 140 nM.

On to `CN(C)c1nc(N)c(C(=O)N=C(N)N)nc1Cl` [Dimethyl amiloride, reference compound], for which, at Na⁺/H⁺ exchanger [1], the “Inhibition of Na^+/H^+ Exchanger MEC” value is 3.0 µM. The compound also displayed an IC50 at Na⁺/H⁺ exchanger [2] of 600 nM.

With `CCN(c1nc(N)c(C(=O)NC(=N)N)nc1Cl)C(C)C` [EIPA, 5-N-ethyl-N-isopropyl amiloride, reference compound], in test [3] (dose 0.3 mg/kg), the “Incidence of Ventricular Fibrillation” value was 56%, the “Incidence of Ventricular Tachycardia” value was found to be 100% and the Mortality is 44%. In test [3] (dose 1 mg/kg), the “Incidence of Ventricular Fibrillation” value was determined as 0%, the “Incidence of Ventricular Tachycardia” value stood at 43% and the Mortality came out at 0%.

Consider `Cn1c(C(=O)N=C(N)N)cc2ccccc21` [Example 1, 1-methyl-2-indoloylguanidine hydrochloride], for which, in test [3] (dose 0.1 mg/kg), the “Incidence of Ventricular Fibrillation” value came out at 10%, the “Incidence of Ventricular Tachycardia” value is listed as 70% and the Mortality is on record as 10%. In test [3] (dose 0.3 mg/kg), the “Incidence of Ventricular Fibrillation” value was found to be 0%, the “Incidence of Ventricular Tachycardia” value was determined as 50% and the Mortality is 0%. The IC50 on Na⁺/H⁺ exchanger [2] (setting [4]) came to 58 nM.

With `Cn1c(C(=O)N=C(N)N)cc2cccc(Cl)c21` [Example 8, 7-Chloro-1-methyl-2-indoloylguanidine hydrochloride], the IC50 on Na⁺/H⁺ exchanger [2] (setting [4]) is 50 nM.

`COc1cccc2c1cc(C(=O)N=C(N)N)n2C` [Example 22, 4-Methoxy-1-methyl-2-indoloylguanidine hydrochloride]: the IC50 at Na⁺/H⁺ exchanger [2] (setting [4]) came to 2100 nM.

As to `Cn1c(C(=O)N=C(N)N)cc2c(C(F)(F)F)cccc21` [Example 29, 1-Methyl-4-trifluoromethyl-2-indoloylguanidine hydrochloride], on Na⁺/H⁺ exchanger [2] (setting [4]), the IC50 was determined as 0.9 nM.

With `Cn1c(C(=O)NC(=N)N)cc2c(F)cccc21` [Example 55, 4-Fluoro-1-methyl-2-indoloylguanidine hydrochloride], the IC50 on Na⁺/H⁺ exchanger [2] (setting [4]) was determined as 20 nM.

Regarding `CC(C)Oc1cccc2c1cc(C(=O)NC(=N)N)n2C` [Example 58, 4-Isopropoxy-1-methy1-2-indoloylguanidine hydrochloride], at Na⁺/H⁺ exchanger [1], the “Inhibition of Na^+/H^+ Exchanger MEC” value stood at 0.3 µM.

Take `Cn1c(C(=O)N=C(N)N)cc2c(Cl)ccc(OCCCN)c21` [Example 118, 7-(3-Aminopropoxy)-4-chloro-1-methyl-2-indoloylguanidine hydrochloride]: the IC50 on Na⁺/H⁺ exchanger [2] (setting [4]) turned out to be 10 nM.
